The target of one assay is T1, PfCRT variant E299A (Plasmodium falciparum, UniProt Q9N623, A220S/E299A/I356T/K76T/M74I/N326S/N75E/Q271E/R371I).
T1 sequence (Q9N623 1-424 M74I/N75E/K76T/A220S/Q271E/E299A/N326S/I356T/R371I): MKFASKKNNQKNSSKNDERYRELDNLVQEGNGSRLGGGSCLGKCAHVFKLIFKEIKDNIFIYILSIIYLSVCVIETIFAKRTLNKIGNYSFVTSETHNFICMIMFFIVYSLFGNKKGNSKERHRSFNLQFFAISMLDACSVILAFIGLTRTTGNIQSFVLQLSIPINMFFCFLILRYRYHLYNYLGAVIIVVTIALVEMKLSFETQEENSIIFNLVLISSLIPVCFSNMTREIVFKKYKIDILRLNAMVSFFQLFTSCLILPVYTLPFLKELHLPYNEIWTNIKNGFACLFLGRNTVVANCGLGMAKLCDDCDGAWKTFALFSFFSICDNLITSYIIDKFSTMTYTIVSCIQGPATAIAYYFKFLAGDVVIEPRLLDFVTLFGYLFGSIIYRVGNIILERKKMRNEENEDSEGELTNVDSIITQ
Briefly: CQ uptake assay, oocytes expressing E299A. The format is cell-based. The procedure: (§1) Site-directed mutagenesis of PfCRT^Dd2 was performed as described using the megaprimer method with overlap extension[21],[54]. The primer pairs used are listed in Supplementary Table 6. Please note that a codon-optimized and oocyte-adapted version of PfCRT^Dd2 was used[22] (Supplementary Fig. 16). The resulting DNA fragment was cloned into the SP64T expression vector and verified by sequencing.
(§2) Oocytes were obtained as described previously. Briefly, adult (>2 years old) female X. laevis frogs (NASCO) were anesthetized in a cooled solution of ethyl 3-amino benzoate methanesulfonate (0.1%, w/v), followed by a surgical removal of parts of the ovary. The ovary lobes were carefully dissected and small pieces of oocytes were incubated in Ca^2+-free ND96 buffer (96 mM NaCl, 2 mM KCl, 1 mM MgCl2 buffered with 5 mM HEPES/NaOH, pH 7.5) supplemented with collagenase D (0.1%, w/v; Roche), BSA (0.5%, w/v), and 9 mm Na2HPO4 at 18 °C for 14-16 h while gentle shaking. After incubation, the oocytes were carefully washed several times with ND96 buffer (96 mM NaCl, 2 mM KCl, 1.8 mM CaCl2, 1 mM MgCl2 buffered with 5 mM HEPES/NaOH, pH 7.5) supplemented with 100 mg l^−1 gentamycin). Defolliculated and healthy-looking stage V-VI oocytes were manually selected for RNA microinjection. The RNA was generated as following: The codon-optimized sequences of PfCRT variants were cloned into the pSP64T expression vector. After vector linearization using the restriction endonucleases BamHI or SalI (New England Biolabs), transcription was performed using the in vitro SP6 mMessage mMachine Kit (Ambion)[34]. The obtained RNA was kept at −80 °C and diluted with nuclease-free water to a concentration of 0.6 μg μl^−1. Precision-bore glass capillary tubes (3.5-inch glass capillaries; Drummond Scientific Co.) were pulled on a vertical puller (P-87 Flaming/Brown micropipette puller, Sutter Instrument Co.), graduated, and placed on a microinjector (Nanoject II Auto-Nanoliter Injector, Drummond Scientific Co.). 50 nl of nuclease-free water alone (control oocytes) or 50 nl of 0.6 μg μl^−1 RNA were injected under stereomicroscopic control. Injected oocytes were incubated for 46–72 h at 18 °C with twice-daily buffer changes before usage in experiments.
Drug uptake assays were performed as described previously[21],[22],[24],[34]. […] The direction of radio-labeled drug transport is here from the mostly acidic extracellular solution (pH 4.5 or 6.0, as indicated) into the oocyte cytosol (pH ∼ 7.2), which corresponds to the efflux of drug from the acidic digestive vacuole (pH 5.2) into the parasite cytoplasm (pH 7.2). The topology of PfCRT in the oolemma is such that both the N- and C-terminus face the extracellular milieu[3],[22]. In the parasite, the N- and C-terminus face the lumen of the digestive vacuole. CQ uptake kinetics were performed by incubating oocytes in ND96 buffer adjusted to a pH of 4.5, 5.0, 5.5, or 6.0 and supplemented with 50 nM [^3H]CQ and one of 7 different CQ concentrations (10 µM, 50 µM, 100 µM, 200 µM, 300 µM, 400 µM, 500 µM CQ). The reaction was stopped at the 60 min time point, which is in the linear uptake range[22],[34] (Supplementary Fig. 17). […] The radioactivity of each sample was measured using a liquid scintillation analyzer Tri-Carb 4910 TR (PerkinElmer). Oocytes that were injected with water instead of RNA were analyzed in parallel, representing the uptake of a drug by diffusion and/or endogenous permeation pathways. […]

The test system of the next assay is PfCRT variant E207M. Nature of the assay: CQ uptake assay, oocytes expressing E207M. Type of assay: cell-based, Plasmodium falciparum. The procedure: as §1, §2
(§3) Drug uptake assays were performed as described previously[21],[22],[24],[34]. […] The direction of radio-labeled drug transport is here from the mostly acidic extracellular solution (pH 4.5 or 6.0, as indicated) into the oocyte cytosol (pH ∼ 7.2), which corresponds to the efflux of drug from the acidic digestive vacuole (pH 5.2) into the parasite cytoplasm (pH 7.2). The topology of PfCRT in the oolemma is such that both the N- and C-terminus face the extracellular milieu[3],[22]. In the parasite, the N- and C-terminus face the lumen of the digestive vacuole. CQ uptake kinetics were performed by incubating oocytes in ND96 buffer adjusted to a pH of 4.5, 5.0, 5.5, or 6.0 and supplemented with 50 nM [^3H]CQ and one of 7 different CQ concentrations (10 µM, 50 µM, 100 µM, 200 µM, 300 µM, 400 µM, 500 µM CQ). The reaction was stopped at the 60 min time point, which is in the linear uptake range[22],[34] (Supplementary Fig. 17). For determination of the amount of drug uptake for each oocyte, the reaction medium was removed and the oocytes were washed three times with 2 ml of ice-cold ND96 buffer. Each oocyte was individually transferred to a scintillation vial containing 5% sodium dodecyl sulfate (200 μl) for lysis. The radioactivity of each sample was measured using a liquid scintillation analyzer Tri-Carb 4910 TR (PerkinElmer). Oocytes that were injected with water instead of RNA were analyzed in parallel, representing the uptake of a drug by diffusion and/or endogenous permeation pathways. The resulting value represents the “background“ level of drug accumulation in oocytes (in-depth discussion in[22]). […]

Another assay deals with PfCRT variant E207R. Nature of the assay: CQ uptake assay, oocytes expressing E207R. The format is cell-based, Plasmodium falciparum. The procedure:
as §1, §2, §3

[1] abbreviates: E299A, 50 µM CQ, 1 h, mean ± SEM.
Where [2] appears, read: E207M, 50 µM CQ, 1 h, mean ± SEM.
[3] abbreviates: pH 4.5, individual replicates, Fig 6b.
The mark [4] stands for this setting: pH 6.0, individual replicates, Fig 6b.
Where [5] appears, read: ratio of activity pH 4.5 / pH 6.0.
[6] abbreviates: E207R, 50 µM CQ, 1 h, mean ± SEM.

Where “and” joins values, the source holds several entries; their conditions need not be identical. Equal values may be shown once.

Consider `CCN(CC)CCCC(C)Nc1ccnc2cc(Cl)ccc12` (centres unmarked) [CQ, chloroquine], for which the results for the “Activity at pH 4.5” value on PfCRT variant E299A (setting [1]), in the assay on PfCRT variant E207M (setting [2]) and in the assay with PfCRT variant E207R (setting [6]) were 1.87 ± 0.19 pmol h-1 oocyte-1, 1.85 ± 0.27 pmol h-1 oocyte-1 and 2.23 ± 0.16 pmol h-1 oocyte-1, respectively. For the same compound, the “Activity at pH 6.0” value at PfCRT variant E299A (setting [1]) is 3.32 ± 0.54 pmol h-1 oocyte-1; in the assay with PfCRT variant E207M (setting [2]) it was 2.24 ± 0.41 pmol h-1 oocyte-1; with PfCRT variant E207R (setting [6]), 2.69 ± 0.23 pmol h-1 oocyte-1. Also, the R-value on PfCRT variant E299A (E299A, CQ transport at pH 4.5 / pH 6.0) was determined as 0.60 ± 0.12; with PfCRT variant E207M (E207M, CQ transport at pH 4.5 / pH 6.0) it was 0.85 ± 0.02; in the assay with PfCRT variant E207R (E207R, CQ transport at pH 4.5 / pH 6.0), 0.84 ± 0.04. For the same compound, the “E299A transport activity pH 4.5” value on PfCRT variant E299A (pH 4.5, single replicates, Fig 1d left) is 2.28 pmol oocyte-1 h-1 and 1.48 pmol oocyte-1 h-1 and 1.84 pmol oocyte-1 h-1. Besides, the “E299A transport activity pH 6.0” value on PfCRT variant E299A (pH 6.0, single replicates, Fig 1d left) is 2.59 pmol oocyte-1 h-1 and 2.74 pmol oocyte-1 h-1 and 4.64 pmol oocyte-1 h-1. Besides, the “E207M transport activity pH 4.5” value in the assay with PfCRT variant E207M (setting [3]) was 1.39 pmol oocyte-1 h-1 and 1.26 pmol oocyte-1 h-1 and 2.26 pmol oocyte-1 h-1 and 2.48 pmol oocyte-1 h-1. Besides, the “E207M transport activity pH 6.0” value in the assay with PfCRT variant E207M (setting [4]) was 1.61 pmol oocyte-1 h-1 and 1.40 pmol oocyte-1 h-1 and 2.48 pmol oocyte-1 h-1 and 3.48 pmol oocyte-1 h-1. Moreover, in the assay on PfCRT variant E207M (setting [5]), the “E207M R-value” was 0.86 and 0.90 and 0.91 and 0.71. The “E207R transport activity pH 4.5” value in the assay on PfCRT variant E207R (setting [3]) was 2.49 pmol oocyte-1 h-1 and 2.35 pmol oocyte-1 h-1 and 1.85 pmol oocyte-1 h-1. Also, in the assay with PfCRT variant E207R (setting [4]), the “E207R transport activity pH 6.0” value was 3.24 pmol oocyte-1 h-1 and 2.53 pmol oocyte-1 h-1 and 2.29 pmol oocyte-1 h-1. The E207RR-value with PfCRT variant E207R (setting [5]) was 0.77 and 0.93 and 0.81.

The values above are taken from publication PMC10349806 (Nature Communications, 2023).
